# Measurements from patent publication US20190204342A1, “METHODS AND USES OF MITOFUSINS” (NESTEC S.A., priority 2014, published 2019).
# How the values were obtained:
# [1] = test system: AMPK; experiment: AMPK activation in liver after metformin injection (western blot of markers CRTC2, elF2alpha, GAPDH); type: in vivo; conditions: metformin 125 mg/kg; livers taken 90 minutes later; high-fat diet; Mfn1 LKO vs control mice
# Protocol: 12 week old Control and Mfn1 LKO mice were fed for 8 weeks with a high-fat diet (D12492, Research Diets Inc., USA). Then, mice were fasted overnight and injected with either saline (as vehicle) or metformin (125 mg/kg). Mice were sacrificed 90 minutes later and livers were immediately extracted and frozen. Protein extracts were obtained and used for western blot analyses to test the markers of AMPK activation: CRTC2, elF2alpha and GAPDH.
# [2] = test system: mitochondrial Complex I; experiment: Metformin inhibition of mitochondrial respiration (respirometry, metformin titrated); type: biochemical; conditions: liver mitochondria from WT and Mfn1 LKO mice, malate, glutamate, ADP
# Protocol: Freshly extracted mitochondria from WT and Mfn1LKO mice were homogenized in respiration medium and 2 mg of tissue were used for respirometry analyses. In them, complex I activity was stimulated by the addition of malate and glutamate. Then, ADP was added to achieve maximal coupled respiration and metformin was subsequently titrated.
# Freshly extracted mitochondria from WT and Mfn1 LKO mice were resuspended in respiration medium and 100 μg of protein were used for respirometry analyses. Complex I activity was stimulated by the addition of malate and glutamate. Then, ADP was added to achieve maximal coupled respiration and metformin was subsequently titrated.
# [3] = Hypoglycemic effect of metformin in high-fat diet fed control and Mfn1LKO mice (blood glucose); type: in vivo; conditions: metformin 125 mg/kg injected after overnight fast; 8 weeks high-fat diet; Mfn1LKO vs control mice
# Description: 12 week old Control and Mfn1 LKO mice were fed for 8 weeks with a high-fat diet (D12492, Research Diets Inc., USA).
compound,measurement,setting,value
"CN(C)C(=N)N=C(N)N [metformin, Metformin]",AMPK activation (markers of AMPK activation),[1],enhanced AMPK activation
same,mitochondrial Complex I respiration inhibition,[2],inhibited more in the Mfn1 LKO mice than in the control mice
same,hypoglycemic effect (blood glucose levels),[3],enhanced in Mfn1LKO mice
